Data reported in patent US11331299B2, “Medicinal use of serrulatane diterpenes” (The University of Sydney, priority 2016, dated 2022).
Like-named read-outs stand apart in the source and are kept apart here.

Assays:
[1] = target: T1, JMJD2D (h) (Homo sapiens, UniProt Q6B0I6); experiment: Epigenetic enzyme assay, Demethylases (KDMs); type: biochemical; conditions: read-out: % Inhibition of Control Values
T1 sequence (Q6B0I6 1-523): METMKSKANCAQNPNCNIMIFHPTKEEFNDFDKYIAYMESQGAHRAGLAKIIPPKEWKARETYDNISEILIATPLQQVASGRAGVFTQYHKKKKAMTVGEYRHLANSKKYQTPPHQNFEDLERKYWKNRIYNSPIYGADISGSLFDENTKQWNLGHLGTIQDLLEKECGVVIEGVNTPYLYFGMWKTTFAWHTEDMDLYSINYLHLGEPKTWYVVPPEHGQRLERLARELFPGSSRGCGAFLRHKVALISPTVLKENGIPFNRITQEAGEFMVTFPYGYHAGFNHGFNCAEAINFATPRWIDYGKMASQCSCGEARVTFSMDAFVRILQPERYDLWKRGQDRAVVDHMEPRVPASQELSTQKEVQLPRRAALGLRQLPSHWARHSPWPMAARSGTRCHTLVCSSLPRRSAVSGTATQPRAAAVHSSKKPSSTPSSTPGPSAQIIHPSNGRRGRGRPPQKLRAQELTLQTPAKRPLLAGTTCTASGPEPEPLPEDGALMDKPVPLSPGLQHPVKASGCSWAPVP

[2] = target: T2, CREBBP (h) bromodomain (Homo sapiens, UniProt Q92793); experiment: Epigenetic binding assay, Bromodomain; conditions: for inhibition at 10 µM: read-out: % Inhibition of Control Specific Binding
T2 construct: Bromodomain; Eurofins CEREP (France), contract laboratory
T2 sequence (Q92793 1085-1192 limits assumed): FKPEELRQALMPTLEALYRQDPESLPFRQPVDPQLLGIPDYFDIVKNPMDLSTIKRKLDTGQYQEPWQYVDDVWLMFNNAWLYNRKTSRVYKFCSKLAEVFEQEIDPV

[3] = target: T3, CYP2C8 (Homo sapiens, UniProt P10632); experiment: Cytochrome P450 Inhibition (CYP panel); type: in vitro ADME; conditions: probe paclitaxel
T3 construct: Human liver microsomes; from tissue; host or cells: human liver microsomes
T3 sequence (P10632 1-490): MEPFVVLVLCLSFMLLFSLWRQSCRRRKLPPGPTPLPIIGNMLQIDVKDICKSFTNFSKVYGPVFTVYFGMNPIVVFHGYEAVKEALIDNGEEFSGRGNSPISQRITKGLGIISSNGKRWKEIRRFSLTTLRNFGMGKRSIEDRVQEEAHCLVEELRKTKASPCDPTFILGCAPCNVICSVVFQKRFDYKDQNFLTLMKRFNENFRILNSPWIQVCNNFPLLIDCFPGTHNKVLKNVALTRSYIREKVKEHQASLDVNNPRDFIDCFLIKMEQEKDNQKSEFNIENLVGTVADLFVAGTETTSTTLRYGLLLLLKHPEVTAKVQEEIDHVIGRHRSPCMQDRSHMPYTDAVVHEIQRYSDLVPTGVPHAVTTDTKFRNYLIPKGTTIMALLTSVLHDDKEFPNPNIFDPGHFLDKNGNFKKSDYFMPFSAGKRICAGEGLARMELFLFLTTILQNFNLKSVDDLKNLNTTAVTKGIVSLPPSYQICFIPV

[4] = target: DNMT1 (h) (Homo sapiens, UniProt P26358); experiment: Epigenetic enzyme assay, DNA methyltransferases (DNMTs); type: biochemical; conditions: read-out: % Inhibition of Control Values
Sequence of DNMT1 (h) (P26358 whole entry): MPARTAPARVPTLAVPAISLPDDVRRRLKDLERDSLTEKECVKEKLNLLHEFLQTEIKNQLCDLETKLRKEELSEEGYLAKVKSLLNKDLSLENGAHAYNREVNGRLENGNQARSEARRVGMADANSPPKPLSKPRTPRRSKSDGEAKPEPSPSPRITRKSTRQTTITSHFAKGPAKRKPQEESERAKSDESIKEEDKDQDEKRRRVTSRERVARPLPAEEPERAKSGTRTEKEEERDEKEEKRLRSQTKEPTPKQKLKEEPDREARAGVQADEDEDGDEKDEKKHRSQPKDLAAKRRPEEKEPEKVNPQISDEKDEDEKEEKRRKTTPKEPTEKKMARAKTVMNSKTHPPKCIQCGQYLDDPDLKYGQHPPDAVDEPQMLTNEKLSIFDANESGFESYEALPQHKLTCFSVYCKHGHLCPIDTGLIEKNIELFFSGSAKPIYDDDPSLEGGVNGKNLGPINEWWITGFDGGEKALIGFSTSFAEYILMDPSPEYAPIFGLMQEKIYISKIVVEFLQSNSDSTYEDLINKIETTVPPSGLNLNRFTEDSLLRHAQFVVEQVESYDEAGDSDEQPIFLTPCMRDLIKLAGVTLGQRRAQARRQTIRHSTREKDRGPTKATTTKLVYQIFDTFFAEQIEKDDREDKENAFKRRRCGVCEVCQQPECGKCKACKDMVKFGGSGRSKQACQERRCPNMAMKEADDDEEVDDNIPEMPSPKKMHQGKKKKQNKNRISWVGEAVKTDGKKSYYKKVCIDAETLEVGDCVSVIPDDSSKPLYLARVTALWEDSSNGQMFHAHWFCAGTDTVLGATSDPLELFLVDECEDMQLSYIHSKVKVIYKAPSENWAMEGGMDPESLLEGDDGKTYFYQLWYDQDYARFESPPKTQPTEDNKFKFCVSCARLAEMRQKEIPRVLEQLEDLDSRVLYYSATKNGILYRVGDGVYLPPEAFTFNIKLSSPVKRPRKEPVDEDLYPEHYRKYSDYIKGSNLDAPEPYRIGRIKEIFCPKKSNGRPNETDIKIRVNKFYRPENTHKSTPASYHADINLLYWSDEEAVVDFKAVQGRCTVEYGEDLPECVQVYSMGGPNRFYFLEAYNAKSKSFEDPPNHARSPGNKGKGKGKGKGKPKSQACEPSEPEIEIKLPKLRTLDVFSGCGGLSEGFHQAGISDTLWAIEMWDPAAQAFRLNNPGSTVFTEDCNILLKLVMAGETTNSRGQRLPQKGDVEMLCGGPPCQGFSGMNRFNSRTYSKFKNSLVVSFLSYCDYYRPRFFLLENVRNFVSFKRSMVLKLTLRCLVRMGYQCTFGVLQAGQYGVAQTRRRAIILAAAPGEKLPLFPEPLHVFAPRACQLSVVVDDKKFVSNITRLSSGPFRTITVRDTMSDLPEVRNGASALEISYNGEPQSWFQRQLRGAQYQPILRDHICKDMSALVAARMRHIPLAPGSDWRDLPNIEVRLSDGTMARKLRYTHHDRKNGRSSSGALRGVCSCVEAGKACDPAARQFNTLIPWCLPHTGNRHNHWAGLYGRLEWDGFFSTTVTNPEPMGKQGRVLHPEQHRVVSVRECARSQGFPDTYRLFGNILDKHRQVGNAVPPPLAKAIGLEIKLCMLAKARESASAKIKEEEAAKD

[5] = target: T4, USP 21 (h) (Homo sapiens, UniProt Q9UK80); experiment: Epigenetic enzyme assay, Ubiquitin modifying enzymes; type: biochemical; conditions: 10 μM; read-out: % Inhibition of Control Values
T4 sequence (Q9UK80 1-565): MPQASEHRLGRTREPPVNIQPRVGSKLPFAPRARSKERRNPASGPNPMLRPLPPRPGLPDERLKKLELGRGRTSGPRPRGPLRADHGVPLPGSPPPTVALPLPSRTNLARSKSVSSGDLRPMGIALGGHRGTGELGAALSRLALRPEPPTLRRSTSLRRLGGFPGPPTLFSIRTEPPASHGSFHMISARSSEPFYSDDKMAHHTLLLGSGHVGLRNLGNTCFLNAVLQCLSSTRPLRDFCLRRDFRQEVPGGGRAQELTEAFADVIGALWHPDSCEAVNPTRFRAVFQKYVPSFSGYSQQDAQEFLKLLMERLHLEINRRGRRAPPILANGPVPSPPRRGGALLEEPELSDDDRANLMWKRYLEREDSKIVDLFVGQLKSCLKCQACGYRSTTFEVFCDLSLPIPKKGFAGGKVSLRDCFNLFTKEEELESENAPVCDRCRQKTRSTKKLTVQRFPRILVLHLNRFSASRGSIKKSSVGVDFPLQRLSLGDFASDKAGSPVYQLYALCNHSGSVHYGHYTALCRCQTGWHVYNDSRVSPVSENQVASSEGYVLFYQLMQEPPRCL

[6] = target: T5, BRD4(1) (h) bromodomain (Homo sapiens, UniProt O60885); experiment: Epigenetic binding assay, Bromodomain; conditions: read-out: % Inhibition of Control Specific Binding
T5 construct: Bromodomain

[7] = target: T6, Chemokine CX3CR1 (Homo sapiens, UniProt P49238); experiment: Chemokine CX3CR1 radio ligand binding; conditions: assay year 2015
T6 construct: expressed in transfected cells; host or cells: Chem-1 cells
T6 sequence (P49238 1-355): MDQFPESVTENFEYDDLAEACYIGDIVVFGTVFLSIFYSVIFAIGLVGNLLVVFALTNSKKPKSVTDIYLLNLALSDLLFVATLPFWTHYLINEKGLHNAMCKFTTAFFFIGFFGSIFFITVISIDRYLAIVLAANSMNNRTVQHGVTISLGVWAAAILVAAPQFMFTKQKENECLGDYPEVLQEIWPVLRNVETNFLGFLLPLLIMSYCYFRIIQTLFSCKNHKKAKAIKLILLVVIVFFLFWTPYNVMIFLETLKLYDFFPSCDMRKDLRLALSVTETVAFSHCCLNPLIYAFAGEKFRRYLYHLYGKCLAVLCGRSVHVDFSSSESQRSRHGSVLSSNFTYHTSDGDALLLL
Experimental: The in vitro pharmacological studies were conducted by Eurofins PanLab (Taiwan) using the parameters shown in Table 13 with respect to appropriate literature references.

[8] = system: H3K27 me2-1; experiment: Cell-based detection methyl modifications; conditions: read-out: % Inhibition of Control Values
[9] = target: HDAC5 (h) (Homo sapiens, UniProt Q9UQL6); experiment: Epigenetic enzyme assay, Histone deacetylase (HDACs); type: biochemical; conditions: read-out: % Inhibition of Control Values
Sequence of HDAC5 (h) (Q9UQL6 whole entry, the tested form may be a part): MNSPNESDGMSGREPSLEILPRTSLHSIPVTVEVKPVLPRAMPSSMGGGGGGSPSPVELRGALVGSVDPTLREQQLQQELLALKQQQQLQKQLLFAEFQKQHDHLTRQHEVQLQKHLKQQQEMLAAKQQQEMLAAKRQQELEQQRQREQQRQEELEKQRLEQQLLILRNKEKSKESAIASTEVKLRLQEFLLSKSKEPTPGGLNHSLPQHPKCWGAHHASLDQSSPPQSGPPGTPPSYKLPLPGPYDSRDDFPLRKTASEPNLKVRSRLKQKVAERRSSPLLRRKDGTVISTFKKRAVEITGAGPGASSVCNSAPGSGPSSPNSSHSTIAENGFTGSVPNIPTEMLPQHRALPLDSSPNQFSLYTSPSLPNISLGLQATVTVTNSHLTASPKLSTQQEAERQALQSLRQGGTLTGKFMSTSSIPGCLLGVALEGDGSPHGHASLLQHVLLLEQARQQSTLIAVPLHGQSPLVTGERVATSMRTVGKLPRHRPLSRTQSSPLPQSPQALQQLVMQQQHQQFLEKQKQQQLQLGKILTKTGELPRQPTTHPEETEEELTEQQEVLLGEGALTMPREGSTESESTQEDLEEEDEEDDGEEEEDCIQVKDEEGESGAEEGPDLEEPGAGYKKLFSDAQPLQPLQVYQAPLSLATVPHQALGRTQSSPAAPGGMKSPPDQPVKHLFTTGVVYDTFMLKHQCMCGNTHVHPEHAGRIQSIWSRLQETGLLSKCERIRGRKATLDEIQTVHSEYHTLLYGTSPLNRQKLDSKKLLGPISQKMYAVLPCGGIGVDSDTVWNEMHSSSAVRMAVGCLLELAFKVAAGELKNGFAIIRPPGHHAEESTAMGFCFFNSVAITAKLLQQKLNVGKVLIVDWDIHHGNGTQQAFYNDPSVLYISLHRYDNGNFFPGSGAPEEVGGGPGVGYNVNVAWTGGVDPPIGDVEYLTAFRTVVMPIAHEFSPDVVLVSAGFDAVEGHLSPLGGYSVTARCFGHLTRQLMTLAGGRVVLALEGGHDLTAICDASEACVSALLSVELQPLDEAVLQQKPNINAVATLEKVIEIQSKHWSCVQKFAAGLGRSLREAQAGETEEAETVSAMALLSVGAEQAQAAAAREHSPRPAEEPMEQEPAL

[10] = system: L3MBTL1 MBT domain; experiment: Epigenetic binding assay, MBT domain; conditions: 10 μM
[11] = target: Guanidinoacetate N-methyltransferase (h) (Homo sapiens, UniProt Q14353); experiment: Epigenetic enzyme assay, Small molecule methyltransferases; type: biochemical; conditions: read-out: % Inhibition of Control Values
[12] = target: JMJD3 (h) (Homo sapiens, UniProt O15054); experiment: Epigenetic enzyme assay, Demethylases (KDMs); type: biochemical; conditions: for inhibition at 10 µM: read-out: % Inhibition of Control Values
Sequence of JMJD3 (h) (O15054 whole entry): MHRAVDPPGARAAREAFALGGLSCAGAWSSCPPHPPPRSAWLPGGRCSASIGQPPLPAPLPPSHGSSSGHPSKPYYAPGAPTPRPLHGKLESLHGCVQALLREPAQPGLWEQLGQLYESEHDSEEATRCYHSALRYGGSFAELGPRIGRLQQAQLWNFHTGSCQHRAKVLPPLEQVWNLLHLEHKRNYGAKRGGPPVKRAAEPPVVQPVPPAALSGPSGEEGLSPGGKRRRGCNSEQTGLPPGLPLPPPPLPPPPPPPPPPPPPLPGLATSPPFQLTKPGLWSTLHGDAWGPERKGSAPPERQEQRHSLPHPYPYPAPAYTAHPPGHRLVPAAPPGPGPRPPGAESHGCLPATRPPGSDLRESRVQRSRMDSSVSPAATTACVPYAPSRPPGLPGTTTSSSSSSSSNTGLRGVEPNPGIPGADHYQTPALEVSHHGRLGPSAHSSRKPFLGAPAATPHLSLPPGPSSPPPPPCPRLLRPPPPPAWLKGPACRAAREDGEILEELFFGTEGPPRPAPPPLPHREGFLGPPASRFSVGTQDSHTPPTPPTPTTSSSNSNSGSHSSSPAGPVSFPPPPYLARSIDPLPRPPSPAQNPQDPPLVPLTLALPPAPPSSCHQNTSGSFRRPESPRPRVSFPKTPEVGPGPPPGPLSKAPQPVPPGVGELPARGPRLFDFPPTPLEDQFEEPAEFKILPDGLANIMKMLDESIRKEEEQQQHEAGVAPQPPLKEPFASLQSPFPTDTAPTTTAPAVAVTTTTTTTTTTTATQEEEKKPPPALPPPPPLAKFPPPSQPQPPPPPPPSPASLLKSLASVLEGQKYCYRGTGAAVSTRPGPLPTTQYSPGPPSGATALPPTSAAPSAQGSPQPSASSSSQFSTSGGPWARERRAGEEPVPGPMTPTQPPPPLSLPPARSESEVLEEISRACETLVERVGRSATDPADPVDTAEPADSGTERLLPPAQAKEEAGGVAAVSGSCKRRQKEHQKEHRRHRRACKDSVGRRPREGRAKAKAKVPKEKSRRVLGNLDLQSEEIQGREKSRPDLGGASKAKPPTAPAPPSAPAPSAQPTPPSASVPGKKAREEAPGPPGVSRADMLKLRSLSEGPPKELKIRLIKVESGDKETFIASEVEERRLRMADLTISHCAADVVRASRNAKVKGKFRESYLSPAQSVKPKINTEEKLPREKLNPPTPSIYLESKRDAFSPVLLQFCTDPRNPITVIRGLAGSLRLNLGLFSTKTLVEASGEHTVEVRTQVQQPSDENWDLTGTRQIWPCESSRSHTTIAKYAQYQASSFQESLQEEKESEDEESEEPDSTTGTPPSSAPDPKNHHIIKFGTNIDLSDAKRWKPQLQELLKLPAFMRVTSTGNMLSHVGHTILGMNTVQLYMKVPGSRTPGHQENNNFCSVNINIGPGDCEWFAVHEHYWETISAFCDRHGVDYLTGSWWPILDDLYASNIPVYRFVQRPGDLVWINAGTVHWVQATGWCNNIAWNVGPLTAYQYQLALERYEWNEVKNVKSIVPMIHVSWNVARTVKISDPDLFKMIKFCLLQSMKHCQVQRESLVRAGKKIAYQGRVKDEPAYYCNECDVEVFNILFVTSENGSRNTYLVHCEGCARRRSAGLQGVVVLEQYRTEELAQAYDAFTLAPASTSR

[13] = target: CYP2D6 (Dextromethorphan Substrate) (Homo sapiens, UniProt P10635); experiment: Cytochrome P450 Inhibition (CYP panel); conditions: CYP2D6 (dextromethorphan sub.); Human liver microsomes; 1 μM
Sequence of CYP2D6 (Dextromethorphan Substrate) (P10635 whole entry): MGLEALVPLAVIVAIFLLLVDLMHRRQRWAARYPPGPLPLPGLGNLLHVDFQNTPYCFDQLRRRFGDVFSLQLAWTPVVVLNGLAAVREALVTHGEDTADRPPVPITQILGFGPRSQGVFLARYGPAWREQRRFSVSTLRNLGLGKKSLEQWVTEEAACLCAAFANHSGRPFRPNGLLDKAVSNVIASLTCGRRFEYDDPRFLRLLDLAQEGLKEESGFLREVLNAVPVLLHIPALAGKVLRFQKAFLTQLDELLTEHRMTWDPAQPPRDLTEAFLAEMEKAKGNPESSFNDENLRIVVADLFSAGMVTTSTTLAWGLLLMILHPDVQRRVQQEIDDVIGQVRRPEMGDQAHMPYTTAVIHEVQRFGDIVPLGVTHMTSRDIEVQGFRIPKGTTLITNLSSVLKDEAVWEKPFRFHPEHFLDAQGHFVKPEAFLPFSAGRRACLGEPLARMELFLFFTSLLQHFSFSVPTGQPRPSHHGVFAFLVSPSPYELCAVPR

[14] = human, human liver microsomes, read-out: % inhibition
[15] = CYP2C8 (paclitaxel sub.), Human liver microsomes, read-out: % Inhibition of Control Values

| SMILES | inhibition at 10 µM [1] [%] | % Inhibition of Control Specific Binding ([2]; 10 μM) | inhibition at 10 µM ([2]; 10 μM) [%] | IC50 ([2]; Table 9, inhibition/concentration-response curve) [µM] | inhibition at 1 µM [3, 14] [%] | inhibition at 1 µM [3, 15] [%] | inhibition at 10 µM [3, 15] [%] | inhibition at 10 µM [4] [%] | inhibition at 10 µM [5] [%] | inhibition at 10 µM [6] [%] | percent of control response at 10 µM [7] [%] | inhibition at 10 µM [8] [%] | inhibition at 10 µM [9] [%] | % Inhibition of Control Specific Binding [10] [%] | inhibition at 10 µM [11] [%] | % Inhibition of Control Values ([12]; 10 μM) | inhibition at 10 µM ([12]; 10 μM) [%] | IC50 ([12]; Table 11, inhibition/concentration-response curve) [µM] | % Inhibition of Control Values [13] [%] |
| --- | --- | --- | --- | --- | --- | --- | --- | --- | --- | --- | --- | --- | --- | --- | --- | --- | --- | --- | --- |
| CC(C)=CCC[C@H](CO)[C@@H]1CC[C@@H](C)c2c1cc(C)c(O)c2O [Compound 1, 7,8,18-trihydroxyserrulat-14-ene] | 36 | significant inhibitory activity | 65 | 3.4 | 12 to 24 | 14 | 76 | 10 | -18 | 49 | -1 | -2 | -3 | 41 | 8 | significant inhibitory activity | 91 | 14 | 13 |
| CC(C)=CCC[C@@H]1COc2c(C)cc(O)c3c2[C@H]1CC[C@H]3C [Compound 3, 5,18-epoxy-8-hydroxyserrulat-14-ene] | 18 |  | 17 |  |  |  |  | -5 | 3 | 8 | 7 | 2 | -1 | 59 | -1 |  | 11 |  |  |
| CC(C)=CCC[C@H](C)[C@@H]1CC[C@@H](C)c2c1cc(C)c(O)c2O [Compound 4, 7,8-dihydroxyserrulat-14-ene] |  |  |  |  | 12 to 24 | 24 | 61 |  |  |  |  |  |  |  |  |  |  |  | 21 |
| CC(C)=CCC[C@@H]1C(O)Oc2c(C)cc(O)c3c2[C@H]1CC[C@H]3C (stereo partly shown) [Compound 2, 5,18-epoxyserrulat-14-en-8,18-diol] | -17 |  | 21 |  | 12 to 24 | 12 | 52 | 4 | 3 | 11 | 5 | 3 | -2 | 61 | -1 |  | 9 |  | 18 |
